Values of other authors in US20150164858A1, “COMBINATION COMPRISING PARTHENOLIDE FOR USE IN THE TREATMENT OF ALZHEIMER'S DISEASE AND OTHER NEURODEGENERATIVE DISORDERS” (King Abdullah University of Science and Technology, priority 2012, published 2015).

Columns and labels:
patients with AD = details: moderate to severe AD
TLR4 = TLR4 (Homo sapiens, UniProt O00206)
[1] = test system: HEK293 cells stably expressing TLR4/MD-2/CD14

TLR4, sequence (O00206 24-839): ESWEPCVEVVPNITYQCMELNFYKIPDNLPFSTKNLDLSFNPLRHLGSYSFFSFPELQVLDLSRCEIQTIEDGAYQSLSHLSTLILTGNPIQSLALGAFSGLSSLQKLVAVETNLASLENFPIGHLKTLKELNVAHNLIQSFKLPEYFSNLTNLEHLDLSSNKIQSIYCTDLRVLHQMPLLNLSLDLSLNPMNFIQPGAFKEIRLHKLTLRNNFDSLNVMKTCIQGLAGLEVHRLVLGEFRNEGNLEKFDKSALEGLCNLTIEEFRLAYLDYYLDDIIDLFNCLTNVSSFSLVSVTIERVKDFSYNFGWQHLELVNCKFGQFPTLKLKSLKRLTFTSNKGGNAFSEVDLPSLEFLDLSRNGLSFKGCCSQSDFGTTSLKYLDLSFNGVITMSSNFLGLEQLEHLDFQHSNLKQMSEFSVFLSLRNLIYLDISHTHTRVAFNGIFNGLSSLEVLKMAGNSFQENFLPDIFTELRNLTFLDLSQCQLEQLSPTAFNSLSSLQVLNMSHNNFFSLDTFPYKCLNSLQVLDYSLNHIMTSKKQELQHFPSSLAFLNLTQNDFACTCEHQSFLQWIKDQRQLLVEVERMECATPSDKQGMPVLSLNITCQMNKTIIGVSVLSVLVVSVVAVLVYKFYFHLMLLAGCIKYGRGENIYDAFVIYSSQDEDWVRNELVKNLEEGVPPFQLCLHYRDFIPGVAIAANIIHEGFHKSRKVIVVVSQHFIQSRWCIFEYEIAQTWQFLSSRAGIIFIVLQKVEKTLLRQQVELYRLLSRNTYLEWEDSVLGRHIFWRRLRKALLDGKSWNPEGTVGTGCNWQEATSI

TLR4 signaling (TLR4) | Compound | cognitive function (patients with AD) | binding site in TLR4 (TLR4; intracellular domain of TLR4) | TIRAP-mediated activation of NF-κB [1] | TRAM-mediated activation of NF-κB and interferon-sensitive response element [1]
– | CC12CC3CC(C)(C1)CC(N)(C3)C2 [Memantine] | improve cognitive function | – | – | –
suppress TLR4 signaling | CCOC(=O)C1=CCCC[C@H]1S(=O)(=O)Nc1ccc(F)cc1Cl [Resatorvid] | – | binding directly to a specific amino acid Cys747 | inhibit | inhibit
